{"source": "paper PMC10879502", "about": "“Linking ATP and allosteric sites to achieve superadditive binding with bivalent EGFR kinase inhibitors” (Communications Chemistry, 2024)", "experiment_in_all_cases": "KINOMEscan", "format_in_all_cases": "binding", "details_in_all_cases": "1 μM", "key": {"ALK": {"molecular_target": "ALK (Homo sapiens, UniProt Q9UM73)"}, "BRAF": {"molecular_target": "T1, BRAF (Homo sapiens, UniProt P15056)", "T1 construct": "purchased Eurofins DiscoverX Corporation (KINOMEscan)"}, "BRSK2": {"molecular_target": "T2, BRSK2 (Homo sapiens, UniProt Q8IWQ3)", "T2 construct": "purchased Eurofins DiscoverX Corporation (KINOMEscan)"}, "CDK4": {"molecular_target": "CDK4 (Homo sapiens, UniProt P11802)"}, "CDKL3": {"molecular_target": "CDKL3 (Homo sapiens, UniProt Q8IVW4)", "sequence (Q8IVW4 whole entry)": "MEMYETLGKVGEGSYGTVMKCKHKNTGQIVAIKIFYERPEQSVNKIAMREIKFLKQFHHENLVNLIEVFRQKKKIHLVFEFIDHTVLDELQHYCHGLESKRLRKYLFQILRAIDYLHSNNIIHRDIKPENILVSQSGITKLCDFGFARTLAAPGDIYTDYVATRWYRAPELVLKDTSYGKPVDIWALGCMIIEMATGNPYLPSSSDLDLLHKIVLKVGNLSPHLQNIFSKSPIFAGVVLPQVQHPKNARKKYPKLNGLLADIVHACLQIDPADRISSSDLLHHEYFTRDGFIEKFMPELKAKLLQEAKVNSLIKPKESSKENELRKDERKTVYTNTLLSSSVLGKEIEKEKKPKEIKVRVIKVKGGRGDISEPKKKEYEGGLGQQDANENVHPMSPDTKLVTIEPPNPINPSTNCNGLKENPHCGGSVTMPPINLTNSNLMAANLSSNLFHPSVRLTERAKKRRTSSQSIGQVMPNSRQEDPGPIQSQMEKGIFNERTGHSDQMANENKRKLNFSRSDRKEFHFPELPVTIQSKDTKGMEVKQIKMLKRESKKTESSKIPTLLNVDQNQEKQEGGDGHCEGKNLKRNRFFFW"}, "CSNK1G3": {"molecular_target": "T3, CSNK1G3 (Homo sapiens, UniProt Q9Y6M4)", "T3 construct": "purchased Eurofins DiscoverX Corporation"}, "DAPK1": {"molecular_target": "T4, DAPK1 (Homo sapiens, UniProt P53355)", "T4 construct": "purchased Eurofins DiscoverX Corporation"}, "DYRK1A": {"molecular_target": "T5, DYRK1A (Homo sapiens, UniProt Q13627)", "T5 construct": "purchased Eurofins DiscoverX Corporation"}, "EGFR(E746-A750del)": {"molecular_target": "EGFR(E746-A750del) (Homo sapiens, UniProt P00533, DEL746-750)"}, "EPHA3": {"molecular_target": "EPHA3 (Homo sapiens, UniProt P29320)"}, "EPHA5": {"molecular_target": "EPHA5 (Homo sapiens, UniProt P54756)"}, "FGFR2": {"molecular_target": "FGFR2 (Homo sapiens, UniProt P21802)"}, "GSK3A": {"molecular_target": "T6, GSK3A (Homo sapiens, UniProt P49840)", "T6 construct": "purchased Eurofins DiscoverX Corporation"}, "HIPK2": {"molecular_target": "T7, HIPK2 (Homo sapiens, UniProt Q9H2X6)", "T7 construct": "purchased Eurofins DiscoverX Corporation"}, "HUNK": {"molecular_target": "T8, HUNK (Homo sapiens, UniProt P57058)", "T8 construct": "purchased Eurofins DiscoverX (KINOMEscan)"}, "IGF1R": {"molecular_target": "T9, IGF1R (Homo sapiens, UniProt P08069)", "T9 construct": "purchased Eurofins DiscoverX (KINOMEscan)"}, "KIT(D816H)": {"molecular_target": "T10, KIT(D816H) (Homo sapiens, UniProt P10721, D816H)", "T10 construct": "purchased Eurofins DiscoverX (KINOMEscan)"}, "LRRK2(G2019S)": {"molecular_target": "T11, LRRK2(G2019S) (Homo sapiens, UniProt Q5S007, G2019S)", "T11 construct": "purchased Eurofins DiscoverX Corporation", "T11 sequence (Q5S007 whole entry G2019S)": "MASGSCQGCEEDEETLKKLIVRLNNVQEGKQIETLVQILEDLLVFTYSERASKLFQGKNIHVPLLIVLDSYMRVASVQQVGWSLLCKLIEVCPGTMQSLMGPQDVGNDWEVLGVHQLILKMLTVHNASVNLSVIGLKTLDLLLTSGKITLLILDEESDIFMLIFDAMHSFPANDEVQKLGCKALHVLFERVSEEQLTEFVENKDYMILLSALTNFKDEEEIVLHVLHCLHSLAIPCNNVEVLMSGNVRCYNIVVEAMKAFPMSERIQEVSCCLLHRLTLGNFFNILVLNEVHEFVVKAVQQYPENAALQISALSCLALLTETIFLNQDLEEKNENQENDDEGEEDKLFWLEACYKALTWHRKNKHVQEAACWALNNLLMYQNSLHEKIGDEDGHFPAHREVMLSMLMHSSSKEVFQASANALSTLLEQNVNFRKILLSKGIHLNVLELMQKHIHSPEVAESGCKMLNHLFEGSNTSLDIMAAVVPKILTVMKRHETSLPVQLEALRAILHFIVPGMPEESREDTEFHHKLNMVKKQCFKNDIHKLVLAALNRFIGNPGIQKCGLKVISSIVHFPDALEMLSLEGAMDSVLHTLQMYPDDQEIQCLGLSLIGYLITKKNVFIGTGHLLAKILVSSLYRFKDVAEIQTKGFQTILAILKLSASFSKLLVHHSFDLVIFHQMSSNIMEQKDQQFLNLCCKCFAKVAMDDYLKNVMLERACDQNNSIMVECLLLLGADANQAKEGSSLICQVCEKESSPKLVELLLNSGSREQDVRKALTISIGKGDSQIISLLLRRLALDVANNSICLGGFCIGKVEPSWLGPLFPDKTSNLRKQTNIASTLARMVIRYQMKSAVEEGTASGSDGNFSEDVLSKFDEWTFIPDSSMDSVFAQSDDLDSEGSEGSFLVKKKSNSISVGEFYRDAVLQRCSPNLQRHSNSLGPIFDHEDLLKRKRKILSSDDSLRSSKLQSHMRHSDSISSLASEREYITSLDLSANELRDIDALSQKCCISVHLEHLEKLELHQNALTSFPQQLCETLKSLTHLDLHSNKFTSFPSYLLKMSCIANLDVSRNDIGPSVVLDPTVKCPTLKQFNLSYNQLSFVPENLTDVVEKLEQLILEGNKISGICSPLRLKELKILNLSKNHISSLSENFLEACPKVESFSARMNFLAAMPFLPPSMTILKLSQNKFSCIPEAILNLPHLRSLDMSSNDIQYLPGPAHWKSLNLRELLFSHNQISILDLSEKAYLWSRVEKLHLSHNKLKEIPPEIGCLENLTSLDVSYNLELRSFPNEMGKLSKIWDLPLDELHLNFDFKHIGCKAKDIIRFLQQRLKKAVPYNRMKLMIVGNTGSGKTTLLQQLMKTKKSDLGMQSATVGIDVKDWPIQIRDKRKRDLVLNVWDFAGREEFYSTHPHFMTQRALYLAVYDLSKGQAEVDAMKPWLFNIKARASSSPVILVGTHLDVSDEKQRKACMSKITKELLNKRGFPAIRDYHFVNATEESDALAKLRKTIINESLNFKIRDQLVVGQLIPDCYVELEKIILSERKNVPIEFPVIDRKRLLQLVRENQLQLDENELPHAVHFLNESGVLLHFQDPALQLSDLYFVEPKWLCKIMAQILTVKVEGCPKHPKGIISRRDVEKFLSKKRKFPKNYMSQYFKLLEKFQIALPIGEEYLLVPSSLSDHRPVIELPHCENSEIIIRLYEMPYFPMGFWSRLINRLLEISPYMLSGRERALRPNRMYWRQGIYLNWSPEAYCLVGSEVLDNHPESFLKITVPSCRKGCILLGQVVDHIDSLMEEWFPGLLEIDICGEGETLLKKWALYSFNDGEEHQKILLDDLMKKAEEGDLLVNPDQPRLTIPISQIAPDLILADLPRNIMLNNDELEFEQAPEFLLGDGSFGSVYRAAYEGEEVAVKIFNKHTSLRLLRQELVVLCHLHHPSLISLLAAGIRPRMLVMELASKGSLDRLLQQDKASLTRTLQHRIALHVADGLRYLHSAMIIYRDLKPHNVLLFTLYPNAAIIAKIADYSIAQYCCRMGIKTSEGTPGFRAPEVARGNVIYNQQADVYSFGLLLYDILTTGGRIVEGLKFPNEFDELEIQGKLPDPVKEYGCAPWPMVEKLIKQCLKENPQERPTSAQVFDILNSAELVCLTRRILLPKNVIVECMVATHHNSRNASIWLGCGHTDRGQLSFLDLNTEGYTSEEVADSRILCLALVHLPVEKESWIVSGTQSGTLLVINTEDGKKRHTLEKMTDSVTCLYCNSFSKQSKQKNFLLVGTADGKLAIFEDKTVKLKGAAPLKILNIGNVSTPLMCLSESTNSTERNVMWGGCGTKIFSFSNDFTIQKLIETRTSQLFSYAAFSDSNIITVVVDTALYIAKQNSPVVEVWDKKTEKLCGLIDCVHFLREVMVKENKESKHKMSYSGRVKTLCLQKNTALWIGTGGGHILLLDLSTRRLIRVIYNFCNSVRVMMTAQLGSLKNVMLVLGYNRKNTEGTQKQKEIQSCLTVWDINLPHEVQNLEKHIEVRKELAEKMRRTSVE"}, "MAP4K4": {"molecular_target": "T12, MAP4K4 (Homo sapiens, UniProt O95819)", "T12 construct": "purchased Eurofins DiscoverX Corporation"}, "MARK4": {"molecular_target": "T13, MARK4 (Homo sapiens, UniProt Q96L34)", "T13 construct": "purchased Eurofins DiscoverX Corporation"}, "MST1R": {"molecular_target": "T14, MST1R (Homo sapiens, UniProt Q04912)", "T14 construct": "purchased Eurofins DiscoverX Corporation"}, "NEK11": {"molecular_target": "T15, NEK11 (Homo sapiens, UniProt Q8NG66)", "T15 construct": "purchased Eurofins DiscoverX Corporation"}, "PAK4": {"molecular_target": "PAK4 (Homo sapiens, UniProt O96013)"}, "PDPK1": {"molecular_target": "PDPK1 (Homo sapiens, UniProt O15530)"}, "PIK3CA": {"molecular_target": "PIK3CA (Homo sapiens, UniProt P42336)"}, "PIK3CA(M1043I)": {"molecular_target": "PIK3CA(M1043I) (Homo sapiens, UniProt P42336, M1043I)"}, "PIK3CA(Q546K)": {"molecular_target": "PIK3CA(Q546K) (Homo sapiens, UniProt P42336, Q546K)"}, "PIK3CD": {"molecular_target": "PIK3CD (Homo sapiens, UniProt O00329)"}, "PIM2": {"molecular_target": "PIM2 (Homo sapiens, UniProt Q9P1W9)"}, "PIP5K1C": {"molecular_target": "PIP5K1C (Homo sapiens, UniProt O60331)"}, "PKAC-beta": {"molecular_target": "PKAC-beta (Homo sapiens, UniProt P22694)"}, "PRKCH": {"molecular_target": "PRKCH (Homo sapiens, UniProt P24723)"}, "PRKR": {"molecular_target": "PRKR (Homo sapiens, UniProt P19525)"}, "PRKX": {"molecular_target": "PRKX (Homo sapiens, UniProt P51817)", "sequence (P51817 whole entry)": "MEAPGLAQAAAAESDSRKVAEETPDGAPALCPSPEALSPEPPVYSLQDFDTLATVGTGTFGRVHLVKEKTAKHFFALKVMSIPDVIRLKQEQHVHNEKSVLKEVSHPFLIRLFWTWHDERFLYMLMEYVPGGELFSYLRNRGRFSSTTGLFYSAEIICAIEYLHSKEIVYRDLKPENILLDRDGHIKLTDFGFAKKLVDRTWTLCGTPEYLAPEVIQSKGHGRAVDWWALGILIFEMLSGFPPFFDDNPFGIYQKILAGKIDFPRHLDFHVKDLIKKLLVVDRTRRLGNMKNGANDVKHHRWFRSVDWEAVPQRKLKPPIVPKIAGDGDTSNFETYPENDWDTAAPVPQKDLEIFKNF"}, "PYK2": {"molecular_target": "PYK2 (Homo sapiens, UniProt Q14289)", "sequence (Q14289 whole entry)": "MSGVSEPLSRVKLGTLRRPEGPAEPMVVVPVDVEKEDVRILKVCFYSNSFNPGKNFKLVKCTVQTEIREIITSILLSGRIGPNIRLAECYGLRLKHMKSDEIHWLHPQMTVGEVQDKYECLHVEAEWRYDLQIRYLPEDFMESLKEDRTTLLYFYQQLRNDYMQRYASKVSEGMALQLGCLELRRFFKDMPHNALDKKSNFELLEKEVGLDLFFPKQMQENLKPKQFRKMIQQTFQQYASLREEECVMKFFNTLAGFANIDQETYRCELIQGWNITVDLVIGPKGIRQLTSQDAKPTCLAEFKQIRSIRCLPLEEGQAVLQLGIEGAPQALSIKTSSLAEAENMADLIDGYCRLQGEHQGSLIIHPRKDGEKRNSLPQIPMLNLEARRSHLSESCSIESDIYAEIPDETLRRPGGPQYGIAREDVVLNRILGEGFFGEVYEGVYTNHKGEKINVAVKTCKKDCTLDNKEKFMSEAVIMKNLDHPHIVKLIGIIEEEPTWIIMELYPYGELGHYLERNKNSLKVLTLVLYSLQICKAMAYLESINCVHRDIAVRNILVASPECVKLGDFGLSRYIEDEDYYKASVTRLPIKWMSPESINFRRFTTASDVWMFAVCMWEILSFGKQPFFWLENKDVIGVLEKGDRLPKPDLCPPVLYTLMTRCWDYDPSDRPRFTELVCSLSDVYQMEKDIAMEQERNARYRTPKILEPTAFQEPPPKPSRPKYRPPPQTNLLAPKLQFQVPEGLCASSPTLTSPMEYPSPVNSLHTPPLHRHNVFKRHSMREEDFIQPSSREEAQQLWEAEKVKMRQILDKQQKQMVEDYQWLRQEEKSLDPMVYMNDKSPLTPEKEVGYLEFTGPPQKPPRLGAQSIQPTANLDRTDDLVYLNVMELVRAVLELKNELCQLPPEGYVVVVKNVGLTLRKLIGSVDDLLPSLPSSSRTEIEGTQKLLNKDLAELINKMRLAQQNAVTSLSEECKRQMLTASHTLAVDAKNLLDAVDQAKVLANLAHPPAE"}, "RET(V804M)": {"molecular_target": "RET(V804M) (Homo sapiens, UniProt P07949, V804M)"}, "RIOK2": {"molecular_target": "RIOK2 (Homo sapiens, UniProt Q9BVS4)"}, "[1]": {"molecular_target": "RSK4(Kin.Dom.1-N-terminal) (Homo sapiens, UniProt Q9UK32)"}, "WNK2": {"molecular_target": "WNK2 (Homo sapiens, UniProt Q9Y3S1)"}, "WNK4": {"molecular_target": "WNK4 (Homo sapiens, UniProt Q96J92)"}, "YES": {"molecular_target": "YES (Homo sapiens, UniProt P07947)", "sequence (P07947 whole entry)": "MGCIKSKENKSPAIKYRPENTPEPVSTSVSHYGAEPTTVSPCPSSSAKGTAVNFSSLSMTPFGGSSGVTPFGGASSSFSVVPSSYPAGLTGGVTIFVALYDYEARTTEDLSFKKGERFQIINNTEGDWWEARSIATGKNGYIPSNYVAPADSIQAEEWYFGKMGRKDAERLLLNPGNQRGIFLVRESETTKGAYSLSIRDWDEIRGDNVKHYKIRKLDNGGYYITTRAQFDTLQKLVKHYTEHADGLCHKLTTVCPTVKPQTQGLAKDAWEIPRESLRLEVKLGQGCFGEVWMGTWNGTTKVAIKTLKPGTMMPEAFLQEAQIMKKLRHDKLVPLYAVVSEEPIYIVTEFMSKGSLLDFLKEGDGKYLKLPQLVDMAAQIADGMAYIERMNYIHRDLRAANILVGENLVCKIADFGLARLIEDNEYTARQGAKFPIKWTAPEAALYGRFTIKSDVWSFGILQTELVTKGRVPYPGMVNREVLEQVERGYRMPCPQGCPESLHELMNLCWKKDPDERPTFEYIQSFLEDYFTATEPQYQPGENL"}, "ZAK": {"molecular_target": "ZAK (Homo sapiens, UniProt Q9NYL2)"}}}
{"smiles": "C=CC(=O)Nc1ccc(OC)c(Nc2cc(-c3[nH]c(CC)nc3-c3cccc(NC(=O)c4cccc5c4NC(=O)c4ccccc4N5)c3)ccn2)c1", "note": "[Compound 4]", "values": [{"measurement": "POC", "setting": "ALK", "result": "100% of control"}, {"measurement": "POC", "setting": "BRAF", "result": "90% of control"}, {"measurement": "POC", "setting": "BRSK2", "result": "93% of control"}, {"measurement": "POC", "setting": "CDK4", "result": "100% of control"}, {"measurement": "POC", "setting": "CDKL3", "result": "100% of control"}, {"measurement": "POC", "setting": "CSNK1G3", "result": "98% of control"}, {"measurement": "POC", "setting": "DAPK1", "result": "86% of control"}, {"measurement": "POC", "setting": "DYRK1A", "result": "100% of control"}, {"measurement": "POC", "setting": "EGFR(E746-A750del)", "result": "13% of control"}, {"measurement": "POC", "setting": "EPHA3", "result": "81% of control"}, {"measurement": "POC", "setting": "EPHA5", "result": "100% of control"}, {"measurement": "POC", "setting": "FGFR2", "result": "100% of control"}, {"measurement": "POC", "setting": "GSK3A", "result": "65% of control"}, {"measurement": "POC", "setting": "HIPK2", "result": "100% of control"}, {"measurement": "POC", "setting": "HUNK", "result": "32% of control"}, {"measurement": "POC", "setting": "IGF1R", "result": "90% of control"}, {"measurement": "POC", "setting": "KIT(D816H)", "result": "39% of control"}, {"measurement": "POC", "setting": "LRRK2(G2019S)", "result": "100% of control"}, {"measurement": "POC", "setting": "MAP4K4", "result": "6.1% of control"}, {"measurement": "POC", "setting": "MARK4", "result": "92% of control"}, {"measurement": "POC", "setting": "MST1R", "result": "85% of control"}, {"measurement": "POC", "setting": "NEK11", "result": "100% of control"}, {"measurement": "POC", "setting": "PAK4", "result": "89% of control"}, {"measurement": "POC", "setting": "PDPK1", "result": "84% of control"}, {"measurement": "POC", "setting": "PIK3CA", "result": "70% of control"}, {"measurement": "POC", "setting": "PIK3CA(M1043I)", "result": "55% of control"}, {"measurement": "POC", "setting": "PIK3CA(Q546K)", "result": "100% of control"}, {"measurement": "POC", "setting": "PIK3CD", "result": "71% of control"}, {"measurement": "POC", "setting": "PIM2", "result": "88% of control"}, {"measurement": "POC", "setting": "PIP5K1C", "result": "78% of control"}, {"measurement": "POC", "setting": "PKAC-beta", "result": "98% of control"}, {"measurement": "POC", "setting": "PRKCH", "result": "69% of control"}, {"measurement": "POC", "setting": "PRKR", "result": "87% of control"}, {"measurement": "POC", "setting": "PRKX", "result": "100% of control"}, {"measurement": "POC", "setting": "PYK2", "result": "100% of control"}, {"measurement": "POC", "setting": "RET(V804M)", "result": "91% of control"}, {"measurement": "POC", "setting": "RIOK2", "result": "83% of control"}, {"measurement": "POC", "setting": "[1]", "result": "100% of control"}, {"measurement": "POC", "setting": "WNK2", "result": "62% of control"}, {"measurement": "POC", "setting": "WNK4", "result": "85% of control"}, {"measurement": "POC", "setting": "YES", "result": "20% of control"}, {"measurement": "POC", "setting": "ZAK", "result": "87% of control"}]}
